For one data set, the target named is T1, PH0952ΔN (Pyrococcus horikoshii, UniProt O58663).
T1 construct: gene PH0952; NBD 102-262, HD 263-316, WHD 317-393, arm 394-496, TPR sensor 497-748; from E. coli Rosetta (DE3), intein tag cleaved; monomeric resting form
Kind of data set: X-ray crystal structure. The following applies: 3.4 Å; ADP present in purification buffer; nucleotide-binding site of the NOD.

Data set [1] deals with T2, MalT (Escherichia coli, UniProt P06993).
T2 construct: full-length, His6-tagged (pOM206, pET24a(+) derivative), purified from E. coli BL21 ΔmalT
Put plainly: analytical size-exclusion chromatography (multimerization) and limited proteolysis. Format: biochemical. The settings on record: with ATP; inducer; pH 8.0. A general note: Size exclusion chromatography separates by hydrodynamic size, large species first.

The target in data set [2] is T3, MalT (Escherichia coli, UniProt P06993, M96T/R171E).
T3 construct: full-length, His6-tagged (pOM206, pET24a(+) derivative), purified from E. coli BL21 ΔmalT
T3 sequence (P06993 whole entry M96T/R171E): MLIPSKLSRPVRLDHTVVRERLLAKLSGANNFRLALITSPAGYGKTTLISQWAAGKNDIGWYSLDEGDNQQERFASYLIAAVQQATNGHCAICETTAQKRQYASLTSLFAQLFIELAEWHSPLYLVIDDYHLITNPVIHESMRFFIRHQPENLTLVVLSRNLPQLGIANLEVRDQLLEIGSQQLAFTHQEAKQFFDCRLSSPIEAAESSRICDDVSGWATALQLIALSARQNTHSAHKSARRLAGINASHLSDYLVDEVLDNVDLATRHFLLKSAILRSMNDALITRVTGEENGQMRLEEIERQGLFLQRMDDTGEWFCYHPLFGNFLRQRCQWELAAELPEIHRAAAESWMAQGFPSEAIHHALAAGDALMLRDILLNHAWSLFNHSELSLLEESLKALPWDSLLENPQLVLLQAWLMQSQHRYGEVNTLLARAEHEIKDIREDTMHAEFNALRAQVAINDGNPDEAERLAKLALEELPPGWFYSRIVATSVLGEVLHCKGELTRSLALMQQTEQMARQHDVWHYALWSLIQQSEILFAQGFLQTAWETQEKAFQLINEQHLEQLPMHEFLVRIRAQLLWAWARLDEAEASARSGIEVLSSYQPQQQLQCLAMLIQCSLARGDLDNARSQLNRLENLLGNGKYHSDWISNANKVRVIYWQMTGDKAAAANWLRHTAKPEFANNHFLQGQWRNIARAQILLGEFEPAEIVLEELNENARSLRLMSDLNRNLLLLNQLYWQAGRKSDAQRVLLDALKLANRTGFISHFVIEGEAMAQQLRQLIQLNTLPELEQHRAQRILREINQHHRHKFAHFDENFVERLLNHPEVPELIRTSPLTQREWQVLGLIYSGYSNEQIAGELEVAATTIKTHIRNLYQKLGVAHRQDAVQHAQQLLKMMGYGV
Kind of data set: limited proteolysis (proteinase K). Format: biochemical. The following applies: 22 mM maltotriose; 0.44 mM ATP or ADP; pH 8.0, 25 °C.

Data set [3] addresses T4, MalT (Escherichia coli, UniProt P06993, M96C).
T4 construct: full-length, His6-tagged (pOM206, pET24a(+) derivative), purified from E. coli BL21 ΔmalT
Kind of data set: analytical size-exclusion chromatography (multimerization). Format: biochemical. The following applies: reducing conditions.

Data set [4] concerns the target T5, MalT (Escherichia coli, UniProt P06993, H562C).
T5 construct: full-length, His6-tagged (pOM206, pET24a(+) derivative), purified from E. coli BL21 ΔmalT
The description is as above. Format: biochemical. The following applies: reducing conditions.

Data set [5] has as its target T6, MalT (Escherichia coli, UniProt P06993, R171E).
T6 construct: full-length, His6-tagged (pOM206, pET24a(+) derivative), purified from E. coli BL21 ΔmalT
Kind of data set: limited proteolysis (proteinase K). Format: biochemical. The following applies: 22 mM maltotriose; 0.44 mM ATP or ADP; pH 8.0, 25 °C.

Data set [6] concerns the molecule itself. Put plainly: SEC; analytical Superdex 200 PC3.2/30, room temperature; reducing conditions; with the inducer maltotriose (Supplementary Figure S9).
Data set [7] deals with the molecule itself. Put plainly: SEC; analytical Superdex 200, room temperature; Tris-HCl 50 mM pH 8.0, 10% sucrose, 0.033 M K3 citrate, 10 mM Mg acetate, 0.1 mM EDTA, 1 mM DTT, 0.1 mM ADP; no maltotriose; high protein concentration (54 μM).

Here are results for 7 molecules from article PMC6468293, “Double autoinhibition mechanism of signal transduction ATPases with numerous domains (STAND) with a tetratricopeptide repeat sensor” (Nucleic Acids Research, 2019).

T6 sequence (P06993 whole entry R171E): as the sequence (P06993 whole entry M96T/R171E) above, with T96M counted along it
T1 sequence (O58663 entry or part of it, stated change not applied): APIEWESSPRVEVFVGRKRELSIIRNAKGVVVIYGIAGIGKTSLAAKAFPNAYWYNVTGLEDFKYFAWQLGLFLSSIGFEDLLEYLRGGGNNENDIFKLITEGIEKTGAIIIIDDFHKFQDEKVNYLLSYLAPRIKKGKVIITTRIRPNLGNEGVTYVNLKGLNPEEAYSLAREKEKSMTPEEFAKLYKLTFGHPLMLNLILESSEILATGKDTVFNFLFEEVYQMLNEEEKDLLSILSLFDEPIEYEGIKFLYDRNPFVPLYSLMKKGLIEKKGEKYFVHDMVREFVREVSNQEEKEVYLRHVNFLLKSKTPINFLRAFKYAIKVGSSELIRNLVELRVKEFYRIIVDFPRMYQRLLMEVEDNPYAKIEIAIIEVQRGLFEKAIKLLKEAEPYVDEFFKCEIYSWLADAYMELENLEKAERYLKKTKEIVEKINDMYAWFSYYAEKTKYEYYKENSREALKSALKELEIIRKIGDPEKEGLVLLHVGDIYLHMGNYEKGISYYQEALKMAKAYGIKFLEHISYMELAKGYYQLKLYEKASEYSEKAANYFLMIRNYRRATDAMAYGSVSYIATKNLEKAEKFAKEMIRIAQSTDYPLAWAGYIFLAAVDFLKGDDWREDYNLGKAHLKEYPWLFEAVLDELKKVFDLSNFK

As to `Nc1ncnc2c1ncn2[C@@H]1O[C@H](COP(=O)(O)OP(=O)(O)O)[C@@H](O)[C@H]1O` [ADP], the X-ray crystal structure result on PH0952ΔN was “a ligand was clearly visible in the experimental electron density map”.

On to `OC[C@H]1O[C@H](O[C@H]2[C@H](O)[C@@H](O)[C@@H](O[C@H]3[C@H](O)[C@@H](O)C(O)O[C@@H]3CO)O[C@@H]2CO)[C@H](O)[C@@H](O)[C@@H]1O` (some centres unmarked) [maltotriose], for which, on MalT [1], the “analytical size-exclusion chromatography (multimerization) and limited proteolys” value is listed as “responded to its presence by multimerizing to the same extent”. The “limited proteolysis (proteinase K)” value on MalT [2] and on MalT [5] was “underwent the same maltotriose-induced conformational changes as MalT” each time. Moreover, the “analytical size-exclusion chromatography (multimerization)” value on MalT [3] is listed as “the four proteins were monomeric in the absence of the inducer, maltotriose”; at MalT [4], “the four proteins were monomeric in the absence of the inducer, maltotriose”.

B1: His6-tagged MalT (Escherichia coli maltose system regulator), wild type (natural protein, E. coli, UniProt P06993 1-901, looked up)
chain: MLIPSKLSRPVRLDHTVVRERLLAKLSGANNFRLALITSPAGYGKTTLISQWAAGKNDIGWYSLDEGDNQQERFASYLIAAVQQATNGHCAICETMAQKRQYASLTSLFAQLFIELAEWHSPLYLVIDDYHLITNPVIHESMRFFIRHQPENLTLVVLSRNLPQLGIANLRVRDQLLEIGSQQLAFTHQEAKQFFDCRLSSPIEAAESSRICDDVSGWATALQLIALSARQNTHSAHKSARRLAGINASHLSDYLVDEVLDNVDLATRHFLLKSAILRSMNDALITRVTGEENGQMRLEEIERQGLFLQRMDDTGEWFCYHPLFGNFLRQRCQWELAAELPEIHRAAAESWMAQGFPSEAIHHALAAGDALMLRDILLNHAWSLFNHSELSLLEESLKALPWDSLLENPQLVLLQAWLMQSQHRYGEVNTLLARAEHEIKDIREDTMHAEFNALRAQVAINDGNPDEAERLAKLALEELPPGWFYSRIVATSVLGEVLHCKGELTRSLALMQQTEQMARQHDVWHYALWSLIQQSEILFAQGFLQTAWETQEKAFQLINEQHLEQLPMHEFLVRIRAQLLWAWARLDEAEASARSGIEVLSSYQPQQQLQCLAMLIQCSLARGDLDNARSQLNRLENLLGNGKYHSDWISNANKVRVIYWQMTGDKAAAANWLRHTAKPEFANNHFLQGQWRNIARAQILLGEFEPAEIVLEELNENARSLRLMSDLNRNLLLLNQLYWQAGRKSDAQRVLLDALKLANRTGFISHFVIEGEAMAQQLRQLIQLNTLPELEQHRAQRILREINQHHRHKFAHFDENFVERLLNHPEVPELIRTSPLTQREWQVLGLIYSGYSNEQIAGELEVAATTIKTHIRNLYQKLGVAHRQDAVQHAQQLLKMMGYGV
notes: MalT, E. coli, His-tagged version encoded by pOM206 (pET24a(+) derivative); Purified in two buffers (with ATP/KCl; or K3 citrate without nucleotide) to serve as control for the variants; Details of the plasmid are in the Supplementary Materials and Methods; also called wt MalT; wild-type MalT; source: E. coli pop8012 (a BL21 ΔmalT strain) with pOM206, purified (nickel-agarose chromatography, …)
Turning to B1, the binding result in data set [6] is “binds”.

B2: His6-tagged MalT^H562C (natural protein, E. coli, UniProt P06993 1-901, looked up)
chain: MLIPSKLSRPVRLDHTVVRERLLAKLSGANNFRLALITSPAGYGKTTLISQWAAGKNDIGWYSLDEGDNQQERFASYLIAAVQQATNGHCAICETMAQKRQYASLTSLFAQLFIELAEWHSPLYLVIDDYHLITNPVIHESMRFFIRHQPENLTLVVLSRNLPQLGIANLRVRDQLLEIGSQQLAFTHQEAKQFFDCRLSSPIEAAESSRICDDVSGWATALQLIALSARQNTHSAHKSARRLAGINASHLSDYLVDEVLDNVDLATRHFLLKSAILRSMNDALITRVTGEENGQMRLEEIERQGLFLQRMDDTGEWFCYHPLFGNFLRQRCQWELAAELPEIHRAAAESWMAQGFPSEAIHHALAAGDALMLRDILLNHAWSLFNHSELSLLEESLKALPWDSLLENPQLVLLQAWLMQSQHRYGEVNTLLARAEHEIKDIREDTMHAEFNALRAQVAINDGNPDEAERLAKLALEELPPGWFYSRIVATSVLGEVLHCKGELTRSLALMQQTEQMARQHDVWHYALWSLIQQSEILFAQGFLQTAWETQEKAFQLINEQCLEQLPMHEFLVRIRAQLLWAWARLDEAEASARSGIEVLSSYQPQQQLQCLAMLIQCSLARGDLDNARSQLNRLENLLGNGKYHSDWISNANKVRVIYWQMTGDKAAAANWLRHTAKPEFANNHFLQGQWRNIARAQILLGEFEPAEIVLEELNENARSLRLMSDLNRNLLLLNQLYWQAGRKSDAQRVLLDALKLANRTGFISHFVIEGEAMAQQLRQLIQLNTLPELEQHRAQRILREINQHHRHKFAHFDENFVERLLNHPEVPELIRTSPLTQREWQVLGLIYSGYSNEQIAGELEVAATTIKTHIRNLYQKLGVAHRQDAVQHAQQLLKMMGYGV
notes: MalT, E. coli, His-tagged, pOM206 derivative; source: E. coli pop8012 (a BL21 ΔmalT strain) with a pOM206 derivative, purified (nickel-agarose chromatography, Superdex 200)
With B2, the binding result in data set [6] is reported as “binds”.

B3: His6-tagged MalT^M96C (natural protein, E. coli, UniProt P06993 1-901, looked up)
chain: MLIPSKLSRPVRLDHTVVRERLLAKLSGANNFRLALITSPAGYGKTTLISQWAAGKNDIGWYSLDEGDNQQERFASYLIAAVQQATNGHCAICETCAQKRQYASLTSLFAQLFIELAEWHSPLYLVIDDYHLITNPVIHESMRFFIRHQPENLTLVVLSRNLPQLGIANLRVRDQLLEIGSQQLAFTHQEAKQFFDCRLSSPIEAAESSRICDDVSGWATALQLIALSARQNTHSAHKSARRLAGINASHLSDYLVDEVLDNVDLATRHFLLKSAILRSMNDALITRVTGEENGQMRLEEIERQGLFLQRMDDTGEWFCYHPLFGNFLRQRCQWELAAELPEIHRAAAESWMAQGFPSEAIHHALAAGDALMLRDILLNHAWSLFNHSELSLLEESLKALPWDSLLENPQLVLLQAWLMQSQHRYGEVNTLLARAEHEIKDIREDTMHAEFNALRAQVAINDGNPDEAERLAKLALEELPPGWFYSRIVATSVLGEVLHCKGELTRSLALMQQTEQMARQHDVWHYALWSLIQQSEILFAQGFLQTAWETQEKAFQLINEQHLEQLPMHEFLVRIRAQLLWAWARLDEAEASARSGIEVLSSYQPQQQLQCLAMLIQCSLARGDLDNARSQLNRLENLLGNGKYHSDWISNANKVRVIYWQMTGDKAAAANWLRHTAKPEFANNHFLQGQWRNIARAQILLGEFEPAEIVLEELNENARSLRLMSDLNRNLLLLNQLYWQAGRKSDAQRVLLDALKLANRTGFISHFVIEGEAMAQQLRQLIQLNTLPELEQHRAQRILREINQHHRHKFAHFDENFVERLLNHPEVPELIRTSPLTQREWQVLGLIYSGYSNEQIAGELEVAATTIKTHIRNLYQKLGVAHRQDAVQHAQQLLKMMGYGV
notes: as for B2
In the case of B3, the binding result in data set [6] is listed as “binds”.

B4: His6-tagged MalT^M96C,H562C (natural protein, E. coli, UniProt P06993 1-901, looked up)
chain: MLIPSKLSRPVRLDHTVVRERLLAKLSGANNFRLALITSPAGYGKTTLISQWAAGKNDIGWYSLDEGDNQQERFASYLIAAVQQATNGHCAICETCAQKRQYASLTSLFAQLFIELAEWHSPLYLVIDDYHLITNPVIHESMRFFIRHQPENLTLVVLSRNLPQLGIANLRVRDQLLEIGSQQLAFTHQEAKQFFDCRLSSPIEAAESSRICDDVSGWATALQLIALSARQNTHSAHKSARRLAGINASHLSDYLVDEVLDNVDLATRHFLLKSAILRSMNDALITRVTGEENGQMRLEEIERQGLFLQRMDDTGEWFCYHPLFGNFLRQRCQWELAAELPEIHRAAAESWMAQGFPSEAIHHALAAGDALMLRDILLNHAWSLFNHSELSLLEESLKALPWDSLLENPQLVLLQAWLMQSQHRYGEVNTLLARAEHEIKDIREDTMHAEFNALRAQVAINDGNPDEAERLAKLALEELPPGWFYSRIVATSVLGEVLHCKGELTRSLALMQQTEQMARQHDVWHYALWSLIQQSEILFAQGFLQTAWETQEKAFQLINEQCLEQLPMHEFLVRIRAQLLWAWARLDEAEASARSGIEVLSSYQPQQQLQCLAMLIQCSLARGDLDNARSQLNRLENLLGNGKYHSDWISNANKVRVIYWQMTGDKAAAANWLRHTAKPEFANNHFLQGQWRNIARAQILLGEFEPAEIVLEELNENARSLRLMSDLNRNLLLLNQLYWQAGRKSDAQRVLLDALKLANRTGFISHFVIEGEAMAQQLRQLIQLNTLPELEQHRAQRILREINQHHRHKFAHFDENFVERLLNHPEVPELIRTSPLTQREWQVLGLIYSGYSNEQIAGELEVAATTIKTHIRNLYQKLGVAHRQDAVQHAQQLLKMMGYGV
notes: as for B2
Consider B4, for which the binding result in data set [6] is “binds”.

B5: His6-tagged MalT^M96T (natural protein, E. coli, UniProt P06993 1-901, looked up)
chain: MLIPSKLSRPVRLDHTVVRERLLAKLSGANNFRLALITSPAGYGKTTLISQWAAGKNDIGWYSLDEGDNQQERFASYLIAAVQQATNGHCAICETTAQKRQYASLTSLFAQLFIELAEWHSPLYLVIDDYHLITNPVIHESMRFFIRHQPENLTLVVLSRNLPQLGIANLRVRDQLLEIGSQQLAFTHQEAKQFFDCRLSSPIEAAESSRICDDVSGWATALQLIALSARQNTHSAHKSARRLAGINASHLSDYLVDEVLDNVDLATRHFLLKSAILRSMNDALITRVTGEENGQMRLEEIERQGLFLQRMDDTGEWFCYHPLFGNFLRQRCQWELAAELPEIHRAAAESWMAQGFPSEAIHHALAAGDALMLRDILLNHAWSLFNHSELSLLEESLKALPWDSLLENPQLVLLQAWLMQSQHRYGEVNTLLARAEHEIKDIREDTMHAEFNALRAQVAINDGNPDEAERLAKLALEELPPGWFYSRIVATSVLGEVLHCKGELTRSLALMQQTEQMARQHDVWHYALWSLIQQSEILFAQGFLQTAWETQEKAFQLINEQHLEQLPMHEFLVRIRAQLLWAWARLDEAEASARSGIEVLSSYQPQQQLQCLAMLIQCSLARGDLDNARSQLNRLENLLGNGKYHSDWISNANKVRVIYWQMTGDKAAAANWLRHTAKPEFANNHFLQGQWRNIARAQILLGEFEPAEIVLEELNENARSLRLMSDLNRNLLLLNQLYWQAGRKSDAQRVLLDALKLANRTGFISHFVIEGEAMAQQLRQLIQLNTLPELEQHRAQRILREINQHHRHKFAHFDENFVERLLNHPEVPELIRTSPLTQREWQVLGLIYSGYSNEQIAGELEVAATTIKTHIRNLYQKLGVAHRQDAVQHAQQLLKMMGYGV
notes: MalT, E. coli, His-tagged, pOM206 derivative; About 20% aggregated after purification without nucleotide; concentration was corrected for this; also called M96T variant
For the molecule B5, the binding result in data set [7] is listed as “binds”.
